{"source": "paper PMC9386018", "about": "“A lymphatic-absorbed multi-targeted kinase inhibitor for myelofibrosis therapy” (Nature Communications, 2022)", "key": {"BRAF": {"target": "BRAF (Homo sapiens, UniProt P15056)", "sequence (P15056 whole entry)": "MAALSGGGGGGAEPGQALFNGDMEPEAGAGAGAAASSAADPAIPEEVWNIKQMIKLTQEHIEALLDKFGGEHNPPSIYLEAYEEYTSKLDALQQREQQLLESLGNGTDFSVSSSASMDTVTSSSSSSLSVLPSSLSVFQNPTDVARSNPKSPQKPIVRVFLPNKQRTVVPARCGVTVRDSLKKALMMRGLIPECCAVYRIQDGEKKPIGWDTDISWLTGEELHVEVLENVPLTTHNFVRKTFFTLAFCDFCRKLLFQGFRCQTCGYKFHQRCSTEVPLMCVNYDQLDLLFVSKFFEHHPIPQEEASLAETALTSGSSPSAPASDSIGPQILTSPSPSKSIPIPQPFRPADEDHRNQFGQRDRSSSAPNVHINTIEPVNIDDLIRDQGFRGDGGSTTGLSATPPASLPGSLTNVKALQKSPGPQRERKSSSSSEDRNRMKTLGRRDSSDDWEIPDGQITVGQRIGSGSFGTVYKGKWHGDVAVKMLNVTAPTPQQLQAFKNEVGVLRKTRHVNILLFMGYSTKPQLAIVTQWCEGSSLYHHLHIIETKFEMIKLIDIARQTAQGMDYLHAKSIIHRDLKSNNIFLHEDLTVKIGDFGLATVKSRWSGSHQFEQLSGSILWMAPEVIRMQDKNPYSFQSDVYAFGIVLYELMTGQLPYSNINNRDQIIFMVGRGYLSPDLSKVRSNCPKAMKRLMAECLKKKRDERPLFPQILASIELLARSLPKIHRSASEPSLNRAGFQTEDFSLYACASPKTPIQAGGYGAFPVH", "assay": "Target kinase 10-point inhibition assay, BRAF", "type": "biochemical", "conditions": "replicates", "source_text": "The average percent kinase inhibition from replicate data was ranked low to high, converted to a compatible identifier format, then input into Coral Human Kinome Visualization software for presentation analysis. […] Scaling of evolutionary distance for PI kinases is only relative and is based on literature analysis[62],[63]. Average percent kinome inhibition values from replicate data are supplied in Source Data file. […] Corrected data was normalized to vehicle treated control values, and dose response percent kinase activity was analyzed by non-linear regression for determination of IC50 values."}, "[1]": {"system": "MPL^W515L mouse model of myelofibrosis", "assay": "MPL^W515L MF mouse model: immune cell numbers in spleen", "type": "in vivo", "conditions": "MPL^W515L mice, oral 400 mg kg^−1 daily, 28 d", "method": "The human megakaryoblastic cell line, SET-2 (ATCC), was maintained in RPMI 1640 supplemented with 20% FBS and incubated for 16 h at 10^6 cells mL^−1 with LP-182 or vehicle (DMSO; dimethyl sulfoxide), then washed in ice-cold PBS, and collected for flow cytometry analysis. Single-cell suspensions of mouse spleen were prepared from MPL^W515L MF mice (below) in RPMI 1640 supplemented with 5% FCS. Red blood cells were lysed by ammonium chloride-mediated red cell lysis (RCL) buffer and passed through a nylon mesh, and then cells were counted. For intracellular phospho-protein staining, SET-2 or spleen cells were fixed and then permeabilized using BD Phospho-flow fixation buffer and Perm-Buffer III (BD biosciences) according to the manufacturer’s protocol. Intracellular phospho-protein staining was performed using fluorochrome-conjugated antibodies, pAKT (pS473)-Alexa Fluor 647 (MB89-61) or pERK1/2 (pT202/pY204)-Alexa Fluor 647 (20 A). […] Flow cytometry was performed on a FACS Fortessa (Becton, Dickinson and Co.) using FACSDiVa software, and data analyzed using FlowJo software (Tree Star). […]\nGeneration of the MPL^W515L mutant MF mouse model was similar to previously described methods. […] Development of MF was evaluated by spleen volumes using MRI beginning ~14 d following bone marrow transplantation (BMT) as outlined below, continuing weekly until end of the study. […]"}, "[2]": {"target": "Target kinase isoforms (PI3K, mTOR, RAF, MEK) (Homo sapiens, UniProt P15056)", "sequence (P15056 whole entry, canonical isoform)": "as the sequence (P15056 whole entry) above", "assay": "Target kinase isoforms 10-point IC50 determination (Supplementary Fig. 7)", "type": "biochemical", "conditions": "BRAF", "summary_of_the_method": "(§1)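 Kinase activity across a 10-point dose series was corrected and normalized to vehicle-treated controls. IC50 values were derived by non-linear regression of percent activity. Kinome-wide percent inhibition was averaged over replicates.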"}, "[3]": {"target": "Target kinase isoforms (PI3K, mTOR, RAF, MEK) (Homo sapiens, UniProt P36507)", "sequence (P36507 whole entry, canonical isoform)": "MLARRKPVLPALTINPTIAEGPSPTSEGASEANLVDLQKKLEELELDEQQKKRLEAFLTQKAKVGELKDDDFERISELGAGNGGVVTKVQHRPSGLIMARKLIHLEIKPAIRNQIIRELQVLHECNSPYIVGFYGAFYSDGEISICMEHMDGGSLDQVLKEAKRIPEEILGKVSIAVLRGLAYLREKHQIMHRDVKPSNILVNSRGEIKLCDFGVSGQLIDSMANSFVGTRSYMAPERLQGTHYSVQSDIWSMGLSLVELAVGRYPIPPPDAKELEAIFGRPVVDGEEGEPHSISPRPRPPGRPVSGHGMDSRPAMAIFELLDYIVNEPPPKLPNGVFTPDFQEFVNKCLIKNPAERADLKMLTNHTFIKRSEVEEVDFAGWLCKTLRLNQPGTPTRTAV", "assay": "Target kinase isoforms 10-point IC50 determination (Supplementary Fig. 7)", "type": "biochemical", "conditions": "MEK2, replicates", "summary_of_the_method": "as §1"}, "[4]": {"target": "Target kinase isoforms (PI3K, mTOR, RAF, MEK) (Homo sapiens, UniProt P04049)", "sequence (P04049 whole entry, canonical isoform)": "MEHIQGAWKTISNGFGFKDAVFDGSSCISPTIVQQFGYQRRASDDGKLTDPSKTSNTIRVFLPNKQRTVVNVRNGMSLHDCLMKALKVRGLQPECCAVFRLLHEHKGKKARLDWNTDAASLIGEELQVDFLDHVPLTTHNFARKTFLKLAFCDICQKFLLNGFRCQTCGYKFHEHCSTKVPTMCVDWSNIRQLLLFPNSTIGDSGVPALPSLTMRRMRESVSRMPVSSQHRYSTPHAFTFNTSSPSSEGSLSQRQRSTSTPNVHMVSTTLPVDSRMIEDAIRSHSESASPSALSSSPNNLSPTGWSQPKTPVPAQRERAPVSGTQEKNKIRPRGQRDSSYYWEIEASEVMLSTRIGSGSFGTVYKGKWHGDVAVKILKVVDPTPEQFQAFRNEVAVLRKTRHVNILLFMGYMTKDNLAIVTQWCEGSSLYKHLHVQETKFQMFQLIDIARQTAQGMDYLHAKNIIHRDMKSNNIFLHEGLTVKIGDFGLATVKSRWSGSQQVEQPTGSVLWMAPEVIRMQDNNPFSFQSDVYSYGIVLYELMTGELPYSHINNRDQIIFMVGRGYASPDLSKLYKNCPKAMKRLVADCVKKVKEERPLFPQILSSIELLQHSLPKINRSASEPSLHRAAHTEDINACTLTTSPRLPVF", "assay": "Target kinase isoforms 10-point IC50 determination (Supplementary Fig. 7)", "type": "biochemical", "conditions": "CRAF", "summary_of_the_method": "as §1"}, "[5]": {"conditions": "concentration 0.495 nM, 0.000495 µM"}, "[6]": {"conditions": "concentration 1.52 nM, 0.00152 µM"}, "[7]": {"conditions": "concentration 4.57 nM, 0.00457 µM"}, "[8]": {"conditions": "concentration 41.2 nM, 0.0412 µM"}}, "note": "Where “and” joins values, the source holds several entries; their conditions need not be identical. Identical values can stand only once."}
{"smiles": "O=C(NOCCOCCOCCOCCC(=O)N1CCN(c2cnc3ccc(-c4cnc(Cl)c(NS(=O)(=O)c5ccc(F)cc5)c4)cc3n2)CC1)c1ccc(F)c(F)c1Nc1ccc(I)cc1F", "note": "[LP-182, N-(2-(2-(2-(3-(4-(7-(6-chloro-5-((4-fluorophenyl)sulfonamido)pyridin-3-yl)quinoxalin-2-yl)piperazin-1-yl)-3-oxopropoxy)ethoxy)ethoxy)ethoxy)-3,4-difluoro-2-((2-fluoro-4-iodophenyl)amino)benzamide]", "values": [{"measurement": "activity at 0.000495 µM", "setting": "BRAF; 0.495 nM", "result": 100, "unit": "%"}, {"measurement": "Kinase Activity (%)", "setting": "BRAF; 0.495 nM, 0.000495 µM", "result": "102% and 96% and 94% and 93%"}, {"measurement": "activity at 0.00152 µM", "setting": "BRAF; 1.52 nM", "result": 101, "unit": "%"}, {"measurement": "Kinase Activity (%)", "setting": "BRAF; 1.52 nM, 0.00152 µM", "result": "98% and 95% (2×) and 94%"}, {"measurement": "activity at 0.00457 µM", "setting": "BRAF; 4.57 nM", "result": 90, "unit": "%"}, {"measurement": "Kinase Activity (%)", "setting": "BRAF; 4.57 nM, 0.00457 µM", "result": "94% and 95% and 98% and 89% and 93%"}, {"measurement": "Kinase Activity (%)", "setting": "BRAF; 41.2 nM, 0.0412 µM", "result": "49% and 38% and 54% and 59% and 53% (2×)"}, {"measurement": "Kinase Activity (%)", "setting": "BRAF; 123 nM, 0.123 µM", "result": "14% and 12% and 41% and 34% (2×) and 38%"}, {"measurement": "Kinase Activity (%)", "setting": "BRAF; 1110 nM, 1.11 µM", "result": "-5% and -3% and 2% (2×) and 4% and 5%"}, {"measurement": "Kinase Activity (%)", "setting": "BRAF; 3330 nM, 3.33 µM", "result": "-5% (2×) and 1% (3×) and 4%"}, {"measurement": "Kinase Activity (%)", "setting": "BRAF; 10000 nM, 10 µM", "result": "-2% and -5% and 2% and 1% and 7% and -1%"}, {"measurement": "cell numbers of neutrophils (Neu) and megakaryocytes (MK) in the spleen", "setting": "[1]", "result": "decreased cell numbers"}, {"measurement": "activity at 0.000495 µM", "setting": "[2]; concentration 0.495 nM", "result": 100, "unit": "%"}, {"measurement": "Kinase Activity (%) BRAF", "setting": "[2]; [5]", "result": "102% and 96% and 94% and 93%"}, {"measurement": "activity at 0.00152 µM", "setting": "[2]; concentration 1.52 nM", "result": 101, "unit": "%"}, {"measurement": "Kinase Activity (%) BRAF", "setting": "[2]; [6]", "result": "98% and 95% and 94%"}, {"measurement": "activity at 0.00457 µM", "setting": "[2]; concentration 4.57 nM", "result": 90, "unit": "%"}, {"measurement": "Kinase Activity (%) BRAF", "setting": "[2]; [7]", "result": "94% and 95% and 98% and 89% and 93%"}, {"measurement": "Kinase Activity (%) BRAF", "setting": "[2]; [8]", "result": "49% and 38% and 54% and 59% and 53%"}, {"measurement": "Kinase Activity (%) BRAF", "setting": "[2]; concentration 1110 nM, 1.11 µM", "result": "-5% and -3% and 2% and 4% and 5%"}, {"measurement": "Kinase Activity (%) BRAF", "setting": "[2]; concentration 3330 nM, 3.33 µM", "result": "-5% and 1% and 4%"}, {"measurement": "activity at 0.000495 µM", "setting": "[3]; concentration 0.495 nM", "result": 90, "unit": "%"}, {"measurement": "Kinase Activity (%)", "setting": "[3]; [5]", "result": "96% (2×) and 93% and 95%"}, {"measurement": "activity at 0.00152 µM", "setting": "[3]; concentration 1.52 nM", "result": 89, "unit": "%"}, {"measurement": "Kinase Activity (%)", "setting": "[3]; [6]", "result": "91% and 95% and 92% and 94%"}, {"measurement": "activity at 0.00457 µM", "setting": "[3]; concentration 4.57 nM", "result": 87, "unit": "%"}, {"measurement": "Kinase Activity (%)", "setting": "[3]; [7]", "result": "96% and 91% and 88%"}, {"measurement": "activity at 0.0412 µM", "setting": "[3]; concentration 41.2 nM", "result": 68, "unit": "%"}, {"measurement": "Kinase Activity (%)", "setting": "[3]; [8]", "result": "64% and 78% (2×) and 82% and 72%"}, {"measurement": "Kinase Activity (%)", "setting": "[3]; concentration 123 nM, 0.123 µM", "result": "45% and 36% and 54% and 60% and 51% and 56%"}, {"measurement": "activity at 1.11 µM", "setting": "[3]; concentration 1110 nM", "result": 6, "unit": "%"}, {"measurement": "Kinase Activity (%)", "setting": "[3]; concentration 1110 nM, 1.11 µM", "result": "8% and 12% (2×) and 10%"}, {"measurement": "Kinase Activity (%)", "setting": "[3]; concentration 3330 nM, 3.33 µM", "result": "1% (3×) and 2% (2×) and 0%"}, {"measurement": "Kinase Activity (%)", "setting": "[3]; concentration 10000 nM, 10 µM", "result": "2% (2×) and 0% (2×) and -1% and 1%"}, {"measurement": "activity at 0.000495 µM", "setting": "[4]; concentration 0.495 nM, replicates", "result": 97, "unit": "%"}, {"measurement": "Kinase Activity (%)", "setting": "[4]; concentration 0.495 nM, replicates, 0.000495 µM", "result": "102% and 93% and 92% and 98%"}, {"measurement": "activity at 0.00152 µM", "setting": "[4]; concentration 1.52 nM, replicates", "result": 100, "unit": "%"}, {"measurement": "Kinase Activity (%)", "setting": "[4]; concentration 1.52 nM, replicates, 0.00152 µM", "result": "93% and 94%"}, {"measurement": "activity at 0.00457 µM", "setting": "[4]; concentration 4.57 nM, replicates", "result": 96, "unit": "%"}, {"measurement": "Kinase Activity (%)", "setting": "[4]; concentration 4.57 nM, replicates, 0.00457 µM", "result": "94% (2×) and 89% and 91% and 93%"}, {"measurement": "Kinase Activity (%)", "setting": "[4]; concentration 41.2 nM, replicates, 0.0412 µM", "result": "56% and 79% and 66% and 72% and 70% and 71%"}, {"measurement": "activity at 0.123 µM", "setting": "[4]; concentration 123 nM, replicates", "result": 31, "unit": "%"}, {"measurement": "Kinase Activity (%)", "setting": "[4]; concentration 123 nM, replicates, 0.123 µM", "result": "30% and 34% (3×) and 32%"}, {"measurement": "activity at […]", "setting": "[4]; concentration 370 nM, replicates", "result": 7, "unit": "%"}, {"measurement": "Kinase Activity (%)", "setting": "[4]; concentration 1110 nM, replicates, 1.11 µM", "result": "1% (2×) and 3% and 0% and 2% (2×)"}, {"measurement": "Kinase Activity (%) CRAF", "setting": "[4]; concentration 3330 nM, 3.33 µM", "result": "0% and -2% and -1%"}, {"measurement": "Kinase Activity (%) CRAF", "setting": "[4]; concentration 10000 nM, 10 µM", "result": "3% and 0% and 1% and -1%"}]}
